Test results taken from PubChem BioAssay (NCI).
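All cell lines were grown in 96-well plates and treated with compound for 48 hours. Here, GI50 denotes the concentration required for 50% inhibition of growth. TGI is the concentration that stops growth completely.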

Experiments:
Experiment in all cases: growth of human tumour cells (NCI), 48 h
[1] = system: BT-549 breast
[2] = system: LOX IMVI melanoma
[3] = system: OVCAR-4 ovarian
[4] = system: OVCAR-5 ovarian
[5] = system: SF-268 CNS
[6] = system: SNB-75 CNS
[7] = system: U251 CNS
[8] = system: UACC-257 melanoma
[9] = system: UACC-62 melanoma
[10] = system: COLO 205 colon

Compound	TGI [1]	TGI [2]	TGI [3]	TGI [4]	TGI [5]	TGI [6]	TGI [7]	TGI [8]	TGI [9]	TGI [10]	GI50 [1]	GI50 [2]	GI50 [3]	GI50 [4]	GI50 [5]	GI50 [6]	GI50 [7]	GI50 [8]	GI50 [9]
O=C1c2ccccc2C(=O)c2c(Nc3ccc4c5c(cccc35)C(=O)c3ccccc3-4)cccc21	> 100 µM	> 100 µM	> 100 µM	> 100 µM	> 100 µM	> 100 µM	> 100 µM	> 100 µM	> 100 µM	–	–	–	–	–	–	–	–	–	–
O=C(CNc1cccc([N+](=O)[O-])c1)Nn1c(-c2ccccc2)nc2ccccc2c1=O	> 100 µM	0.663 µM	–	3.46 µM	4.22 µM	–	2.88 µM	11.8 µM	0.608 µM	3.17 µM	–	–	–	–	–	–	–	–	–
COc1cc(NC(C)=O)ccc1C(=O)N/N=C/c1ccc(Cl)cc1Cl	> 100 µM	> 100 µM	85.5 µM	> 100 µM	> 100 µM	36.5 µM	–	70.9 µM	> 100 µM	> 100 µM	–	–	–	–	–	–	–	–	–
O=c1ccc2nc(-c3ccccc3)nn(-c3ccccn3)c-2c1	56.8 µM	25.3 µM	3.19 µM	54.9 µM	41 µM	26 µM	42.4 µM	14.6 µM	32.8 µM	–	20.8 µM	4.03 µM	1.67 µM	21.9 µM	19 µM	13.2 µM	17.2 µM	3.66 µM	15 µM
O=C(NC(CS)C(=O)O)c1cccc2c(=O)c3ccccc3[nH]c12 (centres undefined)	–	> 100 µM	> 100 µM	> 100 µM	> 100 µM	> 100 µM	> 100 µM	–	> 100 µM	> 100 µM	–	–	–	–	–	–	–	–	–
Cc1ccc2ccccc2c1NC1=NCCO1	–	–	> 100 µM	> 100 µM	> 100 µM	> 100 µM	> 100 µM	> 100 µM	> 100 µM	> 100 µM	–	–	–	–	–	–	–	–	–
COc1cc(C2c3cc(O)c(OC)cc3C3OCC2C3CO)ccc1O (centres undefined)	> 100 µM	> 100 µM	> 100 µM	> 100 µM	> 100 µM	> 100 µM	> 100 µM	–	> 100 µM	> 100 µM	–	–	–	–	–	–	–	–	–
c1cc(Sc2nc(Sc3ccncc3)nc(Sc3ccncc3)n2)ccn1	> 100 µM	> 100 µM	> 100 µM	> 100 µM	> 100 µM	–	> 100 µM	> 100 µM	> 100 µM	> 100 µM	–	–	–	–	–	–	–	–	–
CC(C)(C)C(=O)C(C(=O)C(C)(C)C)C(=O)C(C)(C)C	–	> 100 µM	> 100 µM	> 100 µM	> 100 µM	> 100 µM	> 100 µM	> 100 µM	–	> 100 µM	–	–	–	–	–	–	–	–	–
C=C(C)C1Cc2c(cc(O)c3c(=O)c4c(oc23)C(O)Oc2cc(OC)c(OC)cc2-4)O1 (centres undefined)	> 10 µM	–	> 10 µM	> 10 µM	> 10 µM	–	> 10 µM	> 10 µM	> 10 µM	> 10 µM	–	–	–	–	–	–	–	–	–
C#CCOc1c(C(=O)OCC)c(=O)n(C)c2ccccc12	–	> 100 µM	–	–	> 100 µM	> 100 µM	> 100 µM	–	> 100 µM	> 100 µM	–	–	–	–	–	–	–	–	–
O=C1c2ccccc2NC(=O)C2C1C(c1ccccc1)CC2(O)c1ccccc1 (centres undefined)	–	> 100 µM	> 100 µM	> 100 µM	> 100 µM	0.0677 µM	–	> 100 µM	> 100 µM	36.9 µM	–	–	–	–	–	–	–	–	–
CC(=O)Nc1ccc(NC(=O)c2c(Cl)c(Cl)c(Cl)c(Cl)c2-c2nc3ccccc3[nH]2)cc1	> 100 µM	–	> 100 µM	> 100 µM	> 100 µM	> 100 µM	–	> 100 µM	> 100 µM	39.8 µM	–	–	–	–	–	–	–	–	–
Nc1c2c(=O)[nH]c(=O)c2c(N)c2c(=O)c3ccccc3c(=O)c12	3.71 µM	–	3.39 µM	3.42 µM	15.5 µM	–	> 90 µM	3.17 µM	3.25 µM	1.85 µM	–	–	–	–	–	–	–	–	–
Cn1nc2ccc3nccc(N4CCN(CCO)CC4)c3c2n1	> 100 µM	–	> 100 µM	> 100 µM	> 100 µM	> 100 µM	> 100 µM	> 100 µM	> 100 µM	> 100 µM	–	–	–	–	–	–	–	–	–
CC(OC(C)(C)C)[C@H](NC(=O)OC(C)(C)C)C(=O)O (some centres undefined)	> 100 µM	> 100 µM	> 100 µM	> 100 µM	> 100 µM	–	> 100 µM	> 100 µM	> 100 µM	> 100 µM	–	–	–	–	–	–	–	–	–
O=C1CCC(=O)N1Cc1ccccc1N=[N+]([O-])c1ccccc1CN1C(=O)CCC1=O	–	> 100 µM	> 100 µM	> 100 µM	> 100 µM	65.6 µM	> 100 µM	–	> 100 µM	> 100 µM	–	–	–	–	–	–	–	–	–
CC1(C)O[C@@H]2[C@@H](COC(=O)c3ccccc3)C[C@@H](C#N)[C@@H]2O1	> 100 µM	> 100 µM	> 100 µM	> 100 µM	> 100 µM	> 100 µM	> 100 µM	–	> 100 µM	> 100 µM	–	–	–	–	–	–	–	–	–
N#CN=C(N)NC(=O)/C=C/C=C/c1ccc(Cl)cc1	–	> 100 µM	> 100 µM	> 100 µM	> 100 µM	54.8 µM	> 100 µM	> 100 µM	> 100 µM	> 100 µM	–	–	–	–	–	–	–	–	–
CC(=O)OCC1OC(n2c(-c3ccccc3)c(C(C)=O)c(-c3ccc(Cl)cc3)c(C#N)c2=S)C(OC(C)=O)C(OC(C)=O)C1OC(C)=O (centres undefined)	–	> 100 µM	> 100 µM	> 100 µM	> 100 µM	> 100 µM	> 100 µM	> 100 µM	> 100 µM	> 100 µM	–	–	–	–	–	–	–	–	–
CC(C)=NN/C(=N\S(=O)(=O)c1ccc(C)cc1)Nc1ccc(Cl)cc1	> 100 µM	> 100 µM	> 100 µM	> 100 µM	> 100 µM	–	> 100 µM	> 100 µM	> 100 µM	> 100 µM	–	–	–	–	–	–	–	–	–
O=C(CSc1nc2ccccc2s1)c1sc2sc3ccccc3[n+]2c1[O-]	> 100 µM	> 100 µM	> 100 µM	> 100 µM	> 100 µM	–	> 100 µM	> 100 µM	> 100 µM	> 100 µM	–	–	–	–	–	–	–	–	–
O=C1CC(O)c2c(Br)sc(Br)c21 (centres undefined)	63.1 µM	20.4 µM	–	38.6 µM	43.8 µM	29.8 µM	16.4 µM	17.4 µM	26.3 µM	31 µM	–	–	–	–	–	–	–	–	–
